Results published in patent US8445636B2, “Antimicrobial and anticancer lipopeptides” (Yeda Research & Development Co. Ltd., priority 2003, dated 2013).
Converted amounts (≈) assume the structure as drawn. Non-standard residues stand in square brackets, D forms with d. Residues, ends and D or L forms follow the SMILES beside them. *: point of attachment. Palmitoyl = CCCCCCCCCCCCCCCC(=O)*; Myristoyl = CCCCCCCCCCCCCC(=O)*; Undecanoyl = CCCCCCCCCCC(=O)*; Lauroyl = CCCCCCCCCCCC(=O)*

How the values were obtained:
Format in all cases: cell-based
[1] = system: Candida albicans ATCC 10231; test: microbe, parasite or virus in culture; conditions: for MIC: ATCC 10231, read-out: Minimal Inhibitory Concentration, Candida Albicans (ATCC 10231); for Minimal Inhibitory Concentration, C. albicans ATCC 10231: ATCC 10231, pH 7.4
Protocol: (§1) The antifungal activity of the lipopeptides was examined in sterile 96-well plates (Nunc F96 microtiter plates) in a final volume of 200 μL as follows: 100 µl of a suspension containing fungi at a concentration of 1×10^4 Colony-Forming Units (CFU)/ml in culture medium (RPMI 1640, 0.165 M MOPS with L-glutamine, without NaHCO3) at pH 7.4 or pH 5.5 (adjustment of the pH was done by diluted solutions of HCl and NaOH) were added to 100 μl of water containing the peptide in serial 2-fold dilutions in water. The fungi were incubated in the presence of the lipopeptides for 24-48 h at 35° C. in a Binder KB115 incubator under agitation. Growth inhibition was determined by measuring the absorbance at 620 nm with a Microplate autoreader E1309 (Bio-Tek Instruments). Antifungal activity is expressed as the minimal inhibitory concentration (MIC), the concentration at which 100% inhibition of fungi growth was observed after the incubation time mentioned above. The fungi used were: Aspergillus niger ATCC 9642, Candida albicans ATCC 10231 and Cryptococcus neoformans ATCC 66031. If not indicated otherwise, the fungi growth was detected at pH 7.4.

B. subtilis ATCC 6051 = conditions: ATCC 6051
[2] = system: Cryptococcus neoformans ATCC MYA-422; test: microbe, parasite or virus in culture; conditions: Table 17, D-magainin analog; mean of 3 experiments, standard deviation of 25%; read-out: Minimal Inhibitory Concentration, Cyrptococcus neoformans (ATCC MYA-422)
[3] = system: Escherichia coli ATCC 25922; conditions: for Minimal Inhibitory Concentration, E. coli: ATCC 25922, pH 7.4
Protocol: (§2) The antibacterial activity of the lipopeptides was examined in sterile 96-well plates (Nunc F96 microtiter plates) in a final volume of 100 μl as follows: Aliquots (50 μl) of a suspension containing bacteria at concentration of 1×10^6 Colony-Forming Units (CFU)/ml in culture LB (Lauria broth) medium (pH 7.4 or pH 5.5) were added to 50 μl of water containing the lipopeptide in serial 2-fold dilutions in water. Adjustment of the pH was done by diluted solutions of HCl and NaOH Inhibition of growth was determined by measuring the absorbance at 600 nm with a Microplate autoreader E1309 (Bio-Tek Instruments), after an incubation time of 18-20 h at 37° C. Antibacterial activities were expressed as the minimal inhibitory concentration (MIC), the concentration at which 100% inhibition of growth was observed after 18-20 h of incubation. The bacteria used were: Escherichia coli ATCC 25922, Acinetobacter baumannii ATCC 19606, Pseudomonas aeruginosa ATCC 27853, Staphylococcus aureus ATCC 6538P, Enterococcus faecalis ATCC 29212, Enterobacter cloacae ATCC 49141. The antibacterial activity of lipopeptides was also examined against resistant bacteria: methicilin-resistant Staphylococcus aureus (MRSA) ATCC 700698 and vancomycin-resistant Enterococcus faecium (VRE) ATCC 700221. If not indicated otherwise, the bacterial growth was detected at pH 7.4.

[4] = system: Pseudomonas aeruginosa ATCC 27853; conditions: for Minimal Inhibitory Concentration, P. Aeruginosa: ATCC 27853, pH 7.4
Protocol: as §2

[5] = system: Staphylococcus aureus ATCC 6538P; conditions: for Minimal Inhibitory Concentration, S. aureus: ATCC 6538, pH 7.4
Protocol: as §2

[6] = system: Aspergillus fumigatus ATCC 26430; test: microbe, parasite or virus in culture; conditions: for Minimal Inhibitory Concentration, A. fumigatus ATCC 26430: ATCC 26430, pH 7.4
[7] = system: human red blood cells (hRBC); test: Hemolytic activity, release of hemoglobin at 540 nm
Protocol: Fresh human red blood cells (hRBC) with EDTA were rinsed 3 times with PBS (35 mM phosphate buffer/0.15 M NaCl, pH 7.3) by centrifugation for 10 min at 800 g and resuspended in PBS. Peptides dissolved in PBS were then added to 50 μl of a solution of the stock hRBC in PBS to reach a final volume of 100 μl (final erythrocyte concentration, 4% v/v). The resulting suspension was incubated under agitation for 60 min at 37° C. The samples were then centrifuged at 800×g for 10 min. Release of hemoglobin was monitored by measuring the absorbance of the supernatant at 540 nm. Controls for zero hemolysis (blank) and 100% hemolysis consisted of hRBC suspended in PBS and Triton 1%, respectively.

[8] = system: Cryptococcus neoformans ATCC 66031; test: microbe, parasite or virus in culture; conditions: ATCC 66031, pH 7.4
Protocol: as §1

[9] = system: methicilin-resistant Staphylococcus aureus (MRSA) ATCC 700698; conditions: for Minimal Inhibitory Concentration, S. aureus (MRSA): ATCC 700698, pH 7.4
Protocol: as §2

[10] = system: Enterococcus faecalis ATCC 29212; conditions: ATCC 29212, pH 7.4
Protocol: as §2

[11] = system: Enterobacter cloacae ATCC 49141; conditions: ATCC 49141, pH 7.4
Protocol: as §2

[12] = system: Acinetobacter baumannii ATCC 19606; conditions: ATCC 19606, pH 7.4
Protocol: as §2

Row | SMILES | MIC [1] [µM] | Minimal Inhibitory Concentration, B. subtilis (ATCC 6051) (B. subtilis ATCC 6051) [µM] | MIC [2] [µM] | Minimal Inhibitory Concentration, E. coli (ATCC 25922) [3] [µM] | Minimal Inhibitory Concentration, P. aeruginosa ATCC 27853 [4] [µM] | Minimal Inhibitory Concentration, S. aureus ATCC 6538P [5] [µM] | Minimal Inhibitory Concentration, Aspergillus fumigatus (ATCC 26430) [6] [µM] | % of Hemolytic activity at maximal MIC ([7]; human) [%] | hemolytic activity ([7]; up to a concentration of 25 μM, human red blood cells (FIGS. 6-7)) | Minimal Inhibitory Concentration, C. neoformans ATCC 66031 [8] [µM] | Minimal Inhibitory Concentration, C. albicans ATCC 10231 [1] [µM] | Minimal Inhibitory Concentration, E. coli [3] [µM] | Minimal Inhibitory Concentration, P. Aeruginosa [4] [µM] | Minimal Inhibitory Concentration, S. aureus [5] [µM] | Minimal Inhibitory Concentration, S. aureus (MRSA) [9] [µM] | Minimal Inhibitory Concentration, E. faecalis [10] [µM] | Minimal Inhibitory Concentration, E. cloacae [11] [µM] | Minimal Inhibitory Concentration, A. fumigatus ATCC 26430 [6] [µM] | Minimal Inhibitory Concentration, A. Baumaannii [12] [µM] | activity against MRSA ([9]; in words, summary of Table 4)
1 | CCCCCCCCCCC(=O)NCC(=O)N[C@H](C(=O)NCC(=O)N[C@@H](CCCCN)C(=O)N[C@@H](Cc1ccccc1)C(=O)N[C@H](CC(C)C)C(=O)N[C@@H](Cc1c[nH]cn1)C(=O)N[C@@H](CO)C(=O)N[C@@H](C)C(=O)N[C@H](CCCCN)C(=O)N[C@@H](CCCCN)C(=O)N[C@@H](Cc1c[nH]c2ccccc12)C(=O)NCC(=O)N[C@@H](CCCCN)C(=O)N[C@@H](C)C(=O)N[C@H](Cc1ccccc1)C(=O)N[C@H](C(=O)NCC(=O)N[C@H](CCC(=O)O)C(=O)N[C@H](C(=O)N[C@@H](CCSC)C(=O)N[C@@H](CC(N)=O)C(=O)N[C@@H](CO)C(N)=O)[C@@H](C)CC)C(C)C)[C@@H](C)CC [[D]4magainin-UA] (Undecanoyl-GIGKF[dL]HSA[dK]KWGKA[dF]VG[dE]IMNS-NH2) | >50 | 6.25 | 6.25 (≈ 16.7 µg/mL) | >50 | 50 | 50 | >50 | 2 | – | – | – | – | – | – | – | – | – | – | – | –
2 | CCCCCCCCCCCC(=O)N[C@H](CC(C)C)C(=O)N[C@@H](Cc1cnc[nH]1)C(=O)N[C@@H](Cc1cnc[nH]1)C(=O)N[C@H](CC(C)C)C(=O)N[C@H](CC(C)C)C(=O)N[C@@H](Cc1cnc[nH]1)C(=O)N[C@@H](Cc1cnc[nH]1)C(=O)N[C@H](CC(C)C)C(=O)N[C@H](CC(C)C)C(=O)N[C@@H](Cc1cnc[nH]1)C(=O)N[C@@H](Cc1cnc[nH]1)C(=O)N[C@H](CC(C)C)C(N)=O [lipopeptide 26, (CH3-(CH2)10-CO-)-D-Leu-His-His-D-Leu-D-Leu-His-His-D-Leu-D-Leu-His-His-D-Leu-NH2] (Lauroyl-[dL]HH[dL][dL]HH[dL][dL]HH[dL]-NH2) | – | – | – | – | – | – | – | – | do not exert hemolytic activity | – | – | – | – | – | – | – | – | – | – | –
3 | CC[C@H](C)[C@H](NC(=O)CN)C(=O)NCC(=O)N[C@@H](CCCCN)C(=O)N[C@@H](Cc1ccccc1)C(=O)N[C@H](CC(C)C)C(=O)N[C@@H](Cc1c[nH]cn1)C(=O)N[C@@H](CO)C(=O)N[C@@H](C)C(=O)N[C@H](CCCCN)C(=O)N[C@@H](CCCCN)C(=O)N[C@@H](Cc1c[nH]c2ccccc12)C(=O)NCC(=O)N[C@@H](CCCCN)C(=O)N[C@@H](C)C(=O)N[C@H](Cc1ccccc1)C(=O)N[C@H](C(=O)NCC(=O)N[C@H](CCC(=O)O)C(=O)N[C@H](C(=O)N[C@@H](CCSC)C(=O)N[C@@H](CC(N)=O)C(=O)N[C@@H](CO)C(N)=O)[C@@H](C)CC)C(C)C [[D]4magainin, Gly-Ile-Gly-Lys-Phe-D-Leu-His-Ser-Ala-D-Lys-Lys-Trp-Gly-Lys-Ala-D-Phe-Val-Gly-D-Glu-Ile-Met-Asn-Ser-NH2, reference compound] (H-GIGKF[dL]HSA[dK]KWGKA[dF]VG[dE]IMNS-NH2; N-terminus assumed) | >50 | 50 | >50 | >50 | >50 | >50 | >50 | – | – | – | – | – | – | – | – | – | – | – | – | –
4 | CCCCCCCCCCCCCC(=O)N[C@H](CCCCN)C(=O)NCC(=O)NCC(=O)NCC(=O)N[C@H](CCCCN)C(=O)NCC(=O)NCC(=O)NCC(=O)N[C@H](CCCCN)C(=O)NCC(=O)NCC(=O)N[C@H](CCCCN)C(N)=O [lipopeptide 1, (CH3—(CH2)12—CO—)-D-Lys-Gly-Gly-Gly-D-Lys-Gly-Gly-Gly-D-Lys-Gly-Gly-D-Lys-NH2] (Myristoyl-[dK]GGG[dK]GGG[dK]GG[dK]-NH2) | – | – | – | – | – | – | – | – | – | 6.25 | 3.125 | 12.5 | 6.25 | 6.25 | 6.25 | 3.125 | 3.125 | 6.25 | – | –
5 | CCCCCCCCCCCCCCCC(=O)N[C@@H](CCCCN)C(=O)NCC(=O)NCC(=O)NCC(=O)N[C@@H](CCCCN)C(=O)NCC(=O)NCC(=O)NCC(=O)N[C@@H](CCCCN)C(=O)NCC(=O)NCC(=O)N[C@@H](CCCCN)C(N)=O [lipopeptide 4, (CH3—(CH2)14—CO—)-Lys-Gly-Gly-Gly-Lys-Gly-Gly-Gly-Lys-Gly-Gly-Lys-NH2] (Palmitoyl-KGGGKGGGKGGK-NH2) | – | – | – | – | – | – | – | – | – | 1.56 | 3.125 | 25 | 6.25 | 12.5 | 12.5 | 12.5 | 50 | 6.25 | 25 | –
6 | CCCCCCCCCCC(=O)N[C@@H](CCCCN)C(=O)N[C@@H](CC(C)C)C(=O)N[C@H](CC(C)C)C(=O)N[C@H](CC(C)C)C(=O)N[C@@H](CCCCN)C(=O)N[C@@H](CC(C)C)C(=O)N[C@@H](CC(C)C)C(=O)N[C@H](CC(C)C)C(=O)N[C@@H](CCCCN)C(=O)N[C@H](CC(C)C)C(=O)N[C@@H](CC(C)C)C(=O)N[C@@H](CCCCN)C(N)=O [lipopeptide 10, (CH3—(CH2)9—CO—)-Lys-Leu-D-Leu-D-Leu-Lys-Leu-Leu-D-Leu-Lys-D-Leu-Leu-Lys-NH2] (Undecanoyl-KL[dL][dL]KLL[dL]K[dL]LK-NH2) | – | – | – | – | – | – | – | – | – | 1.56 | 3.125 | 6.25 | 3.25 | 3.125 | 3.125 | 3.125 | 1.56 | 6.25 | 3.125 | highly active
